{"source": "paper PMC7083880", "about": "(Nature Communications, 2020)", "format_in_all_cases": "cell-based, human", "key": {"[1]": {"test_system": "firefly luciferase (Fluc) gene with UGA nonsense codon at position 109 in HeLa cells", "assay": "Firefly luciferase readthrough assay, UGA PTC construct", "conditions": "for Luciferase activity, UGA PTC: G418 1mg/ml", "text": "To identify the compounds responsible for this activity, a semi-preparative HPLC fractionation protocol was used. […] (Fig. 1b). DMSO and G418 were used, respectively, as a negative and a positive control.\nThe value of each luciferase measurement is presented in the Source Data File. All data shown in c, d are representative of two independent experiments. Source data are provided as a Source Data file.\nHeLa cells were transfected with the FLuc-int-UGA construct using lipofectamine 3000 (Life technologies) according to the manufacturer’s recommendations. […] Steadylite plus luciferase substrate (Perkin Elmer, Waltham, MA, USA) was then added to each well before measuring the visible light from each well for 10 s with a Tristar luminometer (Berthold technologies, Versailles, France). The plate was read twice and the reported values are averages of the two reads."}, "[2]": {"test_system": "firefly luciferase (Fluc) gene with UAA nonsense codon at position 109 in HeLa cells", "assay": "Firefly luciferase readthrough assay, UAA PTC construct", "conditions": "for Luciferase activity, UAA PTC: G418 1mg/ml"}, "[3]": {"test_system": "firefly luciferase (Fluc) gene with UAG nonsense codon at position 109 in HeLa cells", "assay": "Firefly luciferase readthrough assay, UAG PTC construct", "conditions": "G418 1mg/ml"}, "[4]": {"test_system": "p53 readthrough protein in Calu-6 cells", "assay": "p53 function: luciferase under promoter with two p53-responsive elements, Calu-6", "text": "(§1) The three leftmost lanes show twofold serial dilutions of untreated HeLa cell extract. The molecular weight is indicated to the left of each gel. b Schematic representation of the construct used to measure the function of p53. The construct carries a cDNA encoding the firefly luciferase under a promoter having two p53-responsive elements (underlined). […] The level of p21 mRNA is related to the amount of functional p53 protein synthesized in the cell. The results presented in panels b and c are representative of at least two independent experiments., p-values (p) were calculated using Student’s t-test. Source data are provided as a Source Data file.\n(§2) Although DAP clearly promoted the synthesis of full-length proteins from UGA-nonsense-mutation-containing mRNAs, it was necessary to ascertain that the readthrough protein was functional. […] The first involved measuring the transcriptional activity of the p53 readthrough protein in Calu-6 cells transfected with an expression vector carrying the cDNA encoding firefly luciferase under the control of a promoter with two p53-responsive elements (Fig. 2b)[33]. Upon DMSO treatment, only basal luciferase activity was detected, reflecting promoter leakage (Fig. 2c). […] The second assay used the p53 target gene p21 (ref. [44])."}, "[5]": {"test_system": "p53 target gene p21 in Calu-6 cells", "assay": "p21 mRNA level by quantitative RT-PCR, Calu-6", "text": "as §1, §2\n(§3) RNA was purified using RNazol (MRC) according to the manufacturer’s instructions. 1/5 of the RNA preparation was used for reverse-transcription (RT) PCR (RT-PCR) using Superscript II (Life Technologies) for 2 h at 42 °C in the presence of random hexamers. The resulting cDNAs were PCR amplified in the presence of dCTP(α^33P) (Perkin Elmer) with the following primers: GAPDH mRNA (sense: 5′-[…]-3′; antisense: 5′-[…]-3′), p53 mRNA (sense: 5′-[…]-3′; antisense: 5′-[…]-3′), p21 mRNA (sense: 5′-[…]-3′; antisense: 5′-[…]-3′). PCR products were quantified with Personal Molecular Imager and QuantityOne quantification software (Bio-Rad)."}, "[6]": {"test_system": "nonsense-mediated mRNA decay (NMD) in Calu-6 cells", "assay": "NMD efficiency: p53 mRNA / GAPDH mRNA by RT-PCR", "conditions": "24 h; for Ratio of p53 mRNA to GAPDH mRNA: 600µM", "procedure": "Source data are provided as a Source Data file.\nTotal RNA was purified from Calu-6 cells after 24 h of treatment.\nas §3"}}, "note": "“And” between values parts separate entries of the source, which are not always exact repeats. Identical values can stand only once."}
{"smiles": "CN[C@@H]1[C@@H](O)[C@@H](O[C@@H]2[C@@H](O)[C@H](O[C@H]3O[C@H]([C@@H](C)O)[C@@H](O)[C@H](O)[C@H]3N)[C@@H](N)C[C@H]2N)OC[C@]1(C)O", "note": "[G418, reference compound]", "values": [{"measurement": "Luciferase activity, UGA PTC, dose response", "setting": "[1]; 0.39µM, Exp. 1", "result": 701.361}, {"measurement": "Luciferase activity, UGA PTC, dose response", "setting": "[1]; 0.39µM, Exp. 2", "result": 678.75}, {"measurement": "Luciferase activity, UGA PTC, dose response", "setting": "[1]; 0.39µM, average", "result": "690±16 and 690.055"}, {"measurement": "Luciferase activity, UGA PTC, dose response", "setting": "[1]; 0.78µM, Exp. 1", "result": 783.19}, {"measurement": "Luciferase activity, UGA PTC, dose response", "setting": "[1]; 0.78µM, Exp. 2", "result": 761.5}, {"measurement": "Luciferase activity, UGA PTC, dose response", "setting": "[1]; 0.78µM, average", "result": "772±15 and 772.345"}, {"measurement": "Luciferase activity, UGA PTC, dose response", "setting": "[1]; 1.56µM, Exp. 1", "result": 853.418}, {"measurement": "Luciferase activity, UGA PTC, dose response", "setting": "[1]; 1.56µM, Exp. 2", "result": 829}, {"measurement": "Luciferase activity, UGA PTC, dose response", "setting": "[1]; 1.56µM, average", "result": "841±17 and 841.209"}, {"measurement": "Luciferase activity, UGA PTC, dose response", "setting": "[1]; 6.25µM, Exp. 1", "result": 1017.65}, {"measurement": "Luciferase activity, UGA PTC, dose response", "setting": "[1]; 6.25µM, Exp. 2", "result": 990.5}, {"measurement": "Luciferase activity, UGA PTC, dose response", "setting": "[1]; 6.25µM, average", "result": "1004±19 and 1004.07"}, {"measurement": "Luciferase activity, UGA PTC, dose response", "setting": "[1]; 25µM, Exp. 1", "result": 1013.6}, {"measurement": "Luciferase activity, UGA PTC, dose response", "setting": "[1]; 25µM, Exp. 2", "result": 986}, {"measurement": "Luciferase activity, UGA PTC, dose response", "setting": "[1]; 25µM, average", "result": "1000±19 and 999.799"}, {"measurement": "Luciferase activity, UGA PTC, dose response", "setting": "[1]; 100µM, Exp. 1", "result": 1134.07}, {"measurement": "Luciferase activity, UGA PTC, dose response", "setting": "[1]; 100µM, Exp. 2", "result": 1106}, {"measurement": "Luciferase activity, UGA PTC, dose response", "setting": "[1]; 100µM, average", "result": "1120±20 and 1120.03"}, {"measurement": "Luciferase activity, UGA PTC, dose response", "setting": "[1]; 300µM, Exp. 1", "result": 1723.63}, {"measurement": "Luciferase activity, UGA PTC, dose response", "setting": "[1]; 300µM, Exp. 2", "result": 1679.5}, {"measurement": "Increase in luciferase activity relative to background level", "setting": "[1]; 300 µM, UGA", "result": "about twice the background level"}, {"measurement": "Luciferase activity, UGA PTC, dose response", "setting": "[1]; 300µM, average", "result": "1702±31 and 1701.56"}, {"measurement": "Luciferase activity, UGA PTC, dose response", "setting": "[1]; 600µM, Exp. 1", "result": 1231.27}, {"measurement": "Luciferase activity, UGA PTC, dose response", "setting": "[1]; 600µM, Exp. 2", "result": 1202}, {"measurement": "Luciferase activity, UGA PTC, dose response", "setting": "[1]; 600µM, average", "result": "1217±21 and 1216.63"}, {"measurement": "EC50", "setting": "[1]; Fig. 1D, authors' reply in peer review file, removed from final text", "result": "~100", "unit": "µM"}, {"measurement": "Concentration of maximal efficacy, UGA readthrough (luciferase)", "setting": "[1]; Fig. 1D, peer review file", "result": 300, "unit": "µM"}, {"measurement": "Correction of the UGA nonsense mutation (luciferase activity), in words", "setting": "[1]; Fig. 1c", "result": "corrected the UGA more efficiently than the UAG nonsense mutation"}, {"measurement": "Luciferase activity, UGA PTC", "setting": "[1]; average of 2 experiments", "result": "8466.25±478 and 8466.25"}, {"measurement": "Luciferase activity, UGA PTC", "setting": "[1]; experiment 1", "result": 8804.5}, {"measurement": "Luciferase activity, UGA PTC", "setting": "[1]; experiment 2", "result": 8128}, {"measurement": "Correction of the UAA nonsense mutation (luciferase activity), in words", "setting": "[2]; Fig. 1c", "result": "only weakly corrected the UAA nonsense mutation"}, {"measurement": "Luciferase activity, UAA PTC", "setting": "[2]; average of 2 experiments", "result": "495±34 and 495"}, {"measurement": "Luciferase activity, UAA PTC", "setting": "[2]; experiment 1", "result": 471}, {"measurement": "Luciferase activity, UAA PTC", "setting": "[2]; experiment 2", "result": 519}, {"measurement": "Luciferase activity, UAG PTC", "setting": "[3]; average of 2 experiments", "result": "2275.5±805 and 2275.5"}, {"measurement": "Luciferase activity, UAG PTC", "setting": "[3]; experiment 1", "result": 2845}, {"measurement": "Luciferase activity, UAG PTC", "setting": "[3]; experiment 2", "result": 1706}, {"measurement": "Luciferase activity under p53-responsive promoter, in words", "setting": "[4]", "result": "remained at its background level"}, {"measurement": "Luciferase activity, p53-responsive promoter construct (DMSO = 1)", "setting": "[4]; 25µM, average", "result": 1.04}, {"measurement": "Luciferase activity, p53-responsive promoter construct (DMSO = 1)", "setting": "[4]; 25µM, experiment 1", "result": 1.048}, {"measurement": "Luciferase activity, p53-responsive promoter construct (DMSO = 1)", "setting": "[4]; 25µM, experiment 2", "result": 0.7766}, {"measurement": "Luciferase activity, p53-responsive promoter construct (DMSO = 1)", "setting": "[4]; 25µM, experiment 3", "result": 1.295}, {"measurement": "Luciferase activity, p53-responsive promoter construct (DMSO = 1)", "setting": "[4]; 600µM, average", "result": 1.017}, {"measurement": "Luciferase activity, p53-responsive promoter construct (DMSO = 1)", "setting": "[4]; 600µM, experiment 1", "result": 1.299}, {"measurement": "Luciferase activity, p53-responsive promoter construct (DMSO = 1)", "setting": "[4]; 600µM, experiment 2", "result": 0.6289}, {"measurement": "Luciferase activity, p53-responsive promoter construct (DMSO = 1)", "setting": "[4]; 600µM, experiment 3", "result": 1.121}, {"measurement": "Level of p21 mRNA (DMSO = 1)", "setting": "[5]; 25µM, average", "result": 1.18}, {"measurement": "Level of p21 mRNA (DMSO = 1)", "setting": "[5]; 25µM, experiment 1", "result": 1.069}, {"measurement": "Level of p21 mRNA (DMSO = 1)", "setting": "[5]; 25µM, experiment 2", "result": 1.178}, {"measurement": "Level of p21 mRNA (DMSO = 1)", "setting": "[5]; 25µM, experiment 3", "result": 1.295}, {"measurement": "Level of p21 mRNA (DMSO = 1)", "setting": "[5]; 600µM, average", "result": 1.145}, {"measurement": "Level of p21 mRNA (DMSO = 1)", "setting": "[5]; 600µM, experiment 1", "result": 0.7456}, {"measurement": "Level of p21 mRNA (DMSO = 1)", "setting": "[5]; 600µM, experiment 2", "result": 1.569}, {"measurement": "Level of p21 mRNA (DMSO = 1)", "setting": "[5]; 600µM, experiment 3", "result": 1.121}, {"measurement": "Ratio of p53 mRNA to GAPDH mRNA", "setting": "[6]; average", "result": 0.3943}, {"measurement": "Ratio of p53 mRNA to GAPDH mRNA", "setting": "[6]; experiment 1", "result": 0.4107}, {"measurement": "Ratio of p53 mRNA to GAPDH mRNA", "setting": "[6]; experiment 2", "result": 0.3778}, {"measurement": "Increase in p53 mRNA", "setting": "[6]", "result": 1.8, "unit": "fold"}]}
